From patent US9957236B2, “Selective inhibitors interfering with fibroblast growth factor receptor and FRS2 interaction for the prevention and treatment of cancer and other diseases” (LIMITED LIABILITY COMPANY “RUSSIAN PHARMACEUTICAL …, priority 2014, dated 2018) come the findings set out here.

Series [1] deals with angiogenesis stimulated by bFGF. The series is described as follows: Matrigel implant angiogenesis stimulated by bFGF. In kind it is in vivo, mice. As for the experimental part: Eighteen hybrid mice of the 1 generation F1 (C57B1/6×DBA/2), males with a weight of 22-30 g are used in the research. The mice (nomenclature number M02.13.00011) were received from a branch of nursery “Stolbovaya”. The method described earlier was used in the experiment [Passaniti A., 1992]. The control and experiment groups had at least 3 mice. Aliquots (1,000 mcl) of Matrigel (BD Biosciences) containing heparin 60 conventional units/ml, VEGF (200 ng/ml, BD Biosciences) or bFGF (100 ng/ml, BD Biosciences) were prepared on ice. Matrigel containing heparin 60 conventional units/ml was used as negative control. Matrigel was injected in the mice subcutaneously into the side part of the back. After injection, Matrigel quickly forms single, hard gel-like implant. A weight of the inhibitor was dissolved in DMSO to concentration of 10^−2M. Aliquots were frozen down to −20° C. and unfrozen immediately before injection. Refreezing of the solution was not allowed. The tested and standard objects were administered intraperitoneally on the 0, 3 and 6 day of Matrigel impintation: Bevacizumab in a dose of 10 mg/kg and RPT835-15 mg/kg. Seven days after administration of Matrigel, the mice were put into sleep with diethyl ether to remove the implant. The implants were fixed for 24-36 hours in 10% neutral formalin and enclosed in paraffin for further histological research.

In series [2] the test system is triple negative breast cancer HS578T. The series is described as follows: Tumor growth of HS578T xenograft in nude mice. Conditions: for Slowdown of tumor growth: 30 mg/kg daily; for average size of tumor: 30 mg/kg daily through a stomach tube. Format: in vivo. On the procedure:
Females of immunodeficient mice (nude) at the age of 8 weeks were administered 2×10^6 tumor cells of human cell lines with various expression of FGFR2: • cell line of triple-negative breast cancer SUM52PE strongly expressing FGFR2 (purchased from Asterand, Inc. (Detroit, Mich.) • cell line of triple negative breast cancer HS578T weakly expressing FGFR2 (purchased from ATCC (CRL-125) • cell line of non-small cell lung cancer NCI-H226 not expressing FGFR2 (purchased from ATCC (CRL-5826)
After the tumor growth got established (1 mm^3), the mice were divided into control and treatment groups in accordance with the tumor type.
Control group 2 (N=10): HS578T, administration of water through a stomach tube, daily.
Treatment group 2 (N=10): HS578T, administration of inhibitor RPT835 through a stomach tube in a dose of 30 mg/kg, daily.
Size of tumor and weight of animals were measured every 3 day. The mice underwent euthanasia when the tumor reached the size of 2,000 mm^3 or on the 60 day of the experiment.

Series [3] deals with intracellular kinases. The experiment in a line: Intracellular kinases phosphorylation in breast cancer cells MDA MB 134. Format: cell-based. To be noted: MDA MB 134 cells. From the text: (§1) The purpose of this research was assessment of specific action of inhibitor RPT835 specified in this invention with formula II, on interaction of […] and FRS2 and assessment of influence on interaction of other types of FGFR and FRS2. For the experiment, 2 cell lines were selected: • stomach cancer KATO III, expressing FGFR2, and • breast cancer MDA MB 134, expressing FGFR1.
(§2) The research procedure was the same as in the previous examples: the cells were cultivated in presence of RPT835 followed by stimulation with FGF-2 and heparin. The other part of the cells was cultivated in presence of RPT835. Phosphorylation of FGFR1 (in breast cancer cells) and FGFR2 (in stomach cancer cells), and also FRS2a (in the both cell lines) and some intracellular kinases (in breast cancer cells) was assessed using manual and automated Western blotting.

For series [4], the target named is T1, FRS2 (Homo sapiens, UniProt Q8WU20).
T1 sequence (Q8WU20 1-508): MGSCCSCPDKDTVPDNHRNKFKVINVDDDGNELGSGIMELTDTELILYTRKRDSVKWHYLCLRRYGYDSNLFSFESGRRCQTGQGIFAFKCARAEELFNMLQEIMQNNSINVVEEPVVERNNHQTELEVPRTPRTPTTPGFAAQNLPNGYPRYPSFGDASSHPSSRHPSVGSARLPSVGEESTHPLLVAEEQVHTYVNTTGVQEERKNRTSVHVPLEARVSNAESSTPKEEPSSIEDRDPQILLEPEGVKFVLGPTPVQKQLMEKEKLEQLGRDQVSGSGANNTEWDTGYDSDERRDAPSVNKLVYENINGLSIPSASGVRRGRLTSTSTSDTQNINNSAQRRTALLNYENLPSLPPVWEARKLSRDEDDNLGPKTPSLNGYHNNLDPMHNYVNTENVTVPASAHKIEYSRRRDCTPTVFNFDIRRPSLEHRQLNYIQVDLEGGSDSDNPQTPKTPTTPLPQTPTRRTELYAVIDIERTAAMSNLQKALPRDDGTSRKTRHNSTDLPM
The series is described as follows: FRS2 phosphorylation in FGF-2/heparin-stimulated KATO III cells (Western blotting, Wes). Format: cell-based. Further details: endogenous in cells. As for the experimental part:
For assessment of the effect of RPT835 inhibitor characterized in this invention with formula II, stomach cancer cells KATO III, which express FGFR2, were used for FRS2 phosphorylation. […] RPT835 was added in various concentrations. A part of the cells was left without adding the inhibitor, and a part of the cells—without adding either inhibitor, or stimulating agents (control group).
Two standard methods for assessment of the phosphorylation level of FGFR and FRS2: • Western blotting using manual work; • Automatic capillary electrophoresis and immunodetection using automatic system Wes™ (ProteinSimple; SantaClara, Calif.).
as §1, §2
In general terms: In western blotting, separated proteins are transferred to a membrane and probed.

The subject of series [5] is anti-FGF-2 antibody. The series is described as follows: Enzyme-linked immune assay, FGF-2 binding to immobilized anti-FGF-2 antibody. Conditions: concentration of 1 to 1,000 nM. On the procedure: The next task was to assess influence of inhibitor RPT835 on binding of FGF-2 and FGFR2-Fc. […] In order to exclude unspecific effect of RPT835 on binding, one more enzyme-linked immune assay was carried out, in which the cavities were covered with immobilized anti-FGF-2 antibody. FGF-2±RPT835 in different concentrations is added to the cavities.

Series [6] in a line: Toxicity assessment in the in vivo studies of Example 13. Conditions: nude mice, 30 mg/kg daily through a stomach tube. As for the experimental part: Toxicity of inhibitor RPT835 was assessed in in vivo studies described in Example 13. According to the standard procedure, all undesirable events were assessed, as well as loss of weight by animals, when the inhibitor is used compared to the control group.

Where [7] appears, read: Matrigel + bFGF, 15 mg/kg intraperitoneally day 0, 3, 6, p<0.001.

Take `Cc1cc([N+](=O)[O-])c(NS(=O)(=O)c2cccc(C(=O)O)c2)cc1-c1cccnc1` [RPT835, 3-(N-(4-methyl-2-nitro-5-(pyridin-3-yl)phenyl)sulfamoyl)benzoic acid]: the “decrease of number of functional micro-vessels compared to the control group” value in series [1] (setting [7]) is listed as “more than 2 fold”. Moreover, the “decrease of number of migrated cells compared to the control group” value in series [1] (setting [7]) is listed as “more than 2 fold”. The “decrease of number of tubular structures compared to the control group” value in series [1] (Matrigel + bFGF, 15 mg/kg intraperitoneally day 0, 3, 6, p=0.016) is on record as “more than 2 fold”. For the same molecule, the “angiogenesis stimulated by bFGF” value in series [1] (Matrigel implants in mice, intraperitoneally day 0, 3, 6, RPT835 15 mg/kg, Bevacizumab 10 mg/kg) was “effectively inhibited”. In addition, the “Slowdown of tumor growth” value in series [2] (31st day) stood at 33.2%; in series [2] (40th day), 30.6%. Further, the “average size of tumor” value in series [2] (31st day) was 703±89.1 mm3; in series [2] (40th day, P=0.01), 1,104±162.2 mm3. Moreover, the “phosphorylation of intracellular kinases” value in series [3] is listed as “did not have influence”. Moreover, the IC50 in series [4] (FGF-2 and heparin stimulation, read-out: concentration of the semi-maximal inhibiting (IC50) of FRS2 phosphorylation) is less than 10 nM. Moreover, the “Suppression of FRS2α phosphorylation” value in series [4] (concentration of 10 nM) was more than 50%. Moreover, in series [4] (dose of 100 nM), the “phosphorylation of FRS2α (FGFR2 system)” value is reported as “completely decreased phosphorylation of FRS2α (FGFR2 system) to the initial level”. Moreover, the “binding of FGF-2 with anti-FGF-2 antibody” value in series [5] is “did not influence on binding of FGF-2 with anti-FGF-2 antibody”. Also, the “weight loss and undesirable side effects of the therapy” value in series [6] is reported as “Neither weight loss, nor any undesirable side effects”.
